In patent US6664214B1, “Uracil compounds and use thereof” (Sumitomo Chemical Company, Limited, priority 1999, dated 2003):

Columns and labels:
ivyleaf morningglory [1] = test: Test Example 1: foliar treatment on upland field; type: in vivo, Ipomoea hederacea; conditions: 125 g/ha, 8 days after application
Method: (§1) In the examples, the compounds are identified by the Compound Numbers as in Tables 1 to 3.
(§2) A cylindrical plastic pot having a diameter of 10 cm and a depth of 10 cm was filled with soil and seeded with ivyleaf momingglory, velvetleaf and bamyardgrass. These test plants were grown in a greenhouse for 9 days. Then each of compounds 1-1, 2-1, 2-2, 3-1 and 3-101 was formulated into an emulsifiable concentrate according to Formulation Example 2 and then diluted to the prescribed amount with water containing a spreading agent and the dilution was uniformly sprayed over the foliage of the test plants with sprayer at a rate of 1000 liters per hectare. After the application, the test plants were grown in the greenhouse for 8 days, and the herbicidal activity were determined.

velvetleaf [2] = test: Test Example 1: foliar treatment on upland field; type: in vivo, Abutilon theophrasti; conditions: 125 g/ha, 8 days after application
Method: as §1, §2

barnyardgrass [3] = test: Test Example 1: foliar treatment on upland field; type: in vivo, Echinochloa crus-galli; conditions: 125 g/ha, 8 days after application
Method: as §1, §2

velvetleaf [4] = test: Test Example 2: soil surface treatment on upland field; type: in vivo, Abutilon theophrasti; conditions: 500 g/ha, 12 days after application
From the text: (§3) In the examples, the compounds are identified by the Compound Numbers as in Tables 1 to 3. […] A cylindrical plastic pot having a diameter of 10 cm and a depth of 10 cm was filled with soil and seeded with velvetleaf. Then each of compounds 1-1, 2-1, 2-2, 3-1 and 3-101 was formulated into an emulsifiable concentrate according to Formulation Example 2 and then diluted to the prescribed amount with water and dilution was uniformly sprayed over the surface of the soil with sprayer at a rate of 1000 liters per hectare. After the application, the test plants were grown in a greenhouse for 12 days, and the herbicidal activity was examined.

ivyleaf morningglory [5] = test: Test Example 3: foliar treatment on upland field (Table 4); type: in vivo, Ipomoea hederacea; parameters: key: 0: little difference in the degree of germination or growth between the treated plants and the untreated plants at the time of examination; 10: the treated plants died completely or their germination or growth was completely inhibited; conditions: 125 g/ha active ingredient, examined 16 days after application, index 0-10
Method: (§4) In the examples, the compounds are identified by the Compound Numbers as in Tables 1 to 3. […] A cylindrical plastic pot having a diameter of 10 cm and a depth of 10 cm was filled with soil and seeded with ivyleaf momingglory, velvetleaf and barnyardgrass. These test plants were grown in a greenhouse for 10 days. Then each of compounds listed below was formulated into an emulsifiable concentrate according to Formulation Example 2 and then diluted to the prescribed amount with water containing a spreading agent and the dilution was uniformly sprayed over the foliage of the test plants with sprayer at a rate of 1000 liters per hectare. After the application, the test plants were grown in the greenhouse for 16 days, and the herbicidal activity were determined.

velvetleaf [6] = test: as above; type: in vivo, Abutilon theophrasti; parameters: key: 0: little difference in the degree of germination or growth between the treated plants and the untreated plants at the time of examination; 10: the treated plants died completely or their germination or growth was completely inhibited; conditions: 125 g/ha active ingredient, examined 16 days after application, index 0-10
Method: as §4

barnyardgrass [7] = test: as above; type: in vivo, Echinochloa crus-galli; parameters: key: 0: little difference in the degree of germination or growth between the treated plants and the untreated plants at the time of examination; 10: the treated plants died completely or their germination or growth was completely inhibited; conditions: 125 g/ha active ingredient, examined 16 days after application, index 0-10
Method: as §4

ivyleaf morningglory [8] = test: Test Example 4: soil surface treatment on upland field (Table 5); type: in vivo, Ipomoea hederacea; parameters: key: 0: little difference in the degree of germination or growth between the treated plants and the untreated plants at the time of examination; 10: the treated plants died completely or their germination or growth was completely inhibited; conditions: 500 g/ha active ingredient, examined 12 days after application, index 0-10
From the text: as §3, with “seeded ivyleaf morningglory, velvetleaf and barnyardgrass.” for “seeded with velvetleaf.”, “compounds listed below” for “compounds 1-1, 2-1, 2-2, 3-1 and 3-101”, “at the” for “at a”

velvetleaf [9] = test: as above; type: in vivo, Abutilon theophrasti; parameters: key: 0: little difference in the degree of germination or growth between the treated plants and the untreated plants at the time of examination; 10: the treated plants died completely or their germination or growth was completely inhibited; conditions: 500 g/ha active ingredient, examined 12 days after application, index 0-10
From the text: as §3, with “seeded ivyleaf morningglory, velvetleaf and barnyardgrass.” for “seeded with velvetleaf.”, “compounds listed below” for “compounds 1-1, 2-1, 2-2, 3-1 and 3-101”, “at the” for “at a”

barnyardgrass [10] = test: as above; type: in vivo, Echinochloa crus-galli; parameters: key: 0: little difference in the degree of germination or growth between the treated plants and the untreated plants at the time of examination; 10: the treated plants died completely or their germination or growth was completely inhibited; conditions: 500 g/ha active ingredient, examined 12 days after application, index 0-10
From the text: as §3, with “seeded ivyleaf morningglory, velvetleaf and barnyardgrass.” for “seeded with velvetleaf.”, “compounds listed below” for “compounds 1-1, 2-1, 2-2, 3-1 and 3-101”, “at the” for “at a”

large crabgrass [11] = test: Test Example 5: foliar treatment on upland field (Table 6); type: in vivo, Digitaria sanguinalis; parameters: key: 0: little difference in the degree of germination or growth between the treated plants and the untreated plants at the time of examination; 10: the treated plants died completely or their germination or growth was completely inhibited; conditions: 125 g/ha, 19 days after application, index 0 to 10
Method: In the examples, the compounds are identified by the Compound Numbers as in Tables 1 to 3. […] A pot for plug seedlings seeded with large crabgrass. The test plant was grown in a greenhouse for 14 days, then transplanted into a plastic pot having an area of 17×12 cm^2 and a depth of 7 cm, and further the test plants were grown in the greenhouse for 8 days. Then each of compounds listed below was formulated into an emulsifiable concentrate according to Formulation Example 2 and then diluted to the prescribed amount with water containing a spreading agent and the dilution was uniformly sprayed over the foliage of the test plants with sprayer at a rate of 1000 liters per hectare. After the application, the test plants were grown in the greenhouse for 19 days, and the herbicidal activity were determined.

large crabgrass [12] = test: Test Example 6: foliar treatment on upland field (Table 7); type: in vivo, Digitaria sanguinalis; parameters: key: 0: little difference in the degree of germination or growth between the treated plants and the untreated plants at the time of examination; 10: the treated plants died completely or their germination or growth was completely inhibited; conditions: 8 g/ha, 19 days after application, index 0 to 10
Method: (§5) In the examples, the compounds are identified by the Compound Numbers as in Tables 1 to 3. […] A plastic pot having a area of 27×20 cm^2 and a depth of 7.5 cm filled with soil, seeded with barnyardgrass. The test plant was grown in a greenhouse for 4 days. The seedlings of large crabgrass and giant foxtail, which were seeded into a pot for plug seedlings and grown in a greenhouse for 14 days, were transplanted into the plastic pot. The test plants, further, were grown in the greenhouse for 8 days. Then each of compound listed below was formulated into an emulsifiable concentrate according to Formulation Example 2 and then diluted to the prescribed amount with water containing a spreading agent and the dilution was uniformly sprayed over the foliage of the test plants with sprayer at a rate of 1000 liters per hectare. After the application, the test plants were grown in the greenhouse for 19 days, and the herbicidal activity were determined.

giant foxtail = test: as above; type: in vivo, Setaria faberi; parameters: key: 0: little difference in the degree of germination or growth between the treated plants and the untreated plants at the time of examination; 10: the treated plants died completely or their germination or growth was completely inhibited; conditions: 8 g/ha, 19 days after application, index 0 to 10
Method: as §5

barnyardgrass [13] = test: as above; type: in vivo, Echinochloa crus-galli; parameters: key: 0: little difference in the degree of germination or growth between the treated plants and the untreated plants at the time of examination; 10: the treated plants died completely or their germination or growth was completely inhibited; conditions: 8 g/ha, 19 days after application, index 0 to 10
Method: as §5

| Compound | growth of ivyleaf morningglory (ivyleaf morningglory [1]) | growth of velvetleaf (velvetleaf [2]) | growth of barnyardgrass (barnyardgrass [3]) | germination of velvetleaf (velvetleaf [4]) | Herbicidal effect Ivyleaf morningglory (ivyleaf morningglory [5]) | Herbicidal effect Velvetleaf (velvetleaf [6]) | Herbicidal effect Barnyardgrass (barnyardgrass [7]) | Herbicidal effect Ivyleaf morningglory (ivyleaf morningglory [8]) | Herbicidal effect Velvetleaf (velvetleaf [9]) | Herbicidal effect Barnyardgrass (barnyardgrass [10]) | Herbicidal effect Large crabgrass (large crabgrass [11]) | Herbicidal effect Large crabgrass (large crabgrass [12]) | Herbicidal effect Giant foxtail (giant foxtail) | Herbicidal effect Barnyard-grass (barnyardgrass [13]) |
| --- | --- | --- | --- | --- | --- | --- | --- | --- | --- | --- | --- | --- | --- | --- |
| COC(=O)C(C)Oc1ccc(COc2cc(-n3c(=O)cc(C(F)(F)F)n(C)c3=O)c(F)cc2Cl)cc1 (stereo not shown) [Compound 1-1, methyl 2-[4-({2-chloro-4-fluoro-5-[3-methyl-2,6-dioxo-4-(trifluoromethyl)-1,2,3,6-tetrahydropyrimidine-1-yl]phenoxyl}methyl)phenoxy]propionate] | completely controlled | completely controlled | completely controlled | completely controlled | 10 | 10 | 10 | 10 | 10 | 9 | 10 | 10 | 9 | 10 |
| COC(=O)C(C)Oc1cccc(COc2cc(-n3c(=O)cc(C(F)(F)F)n(C)c3=O)c(F)cc2Cl)c1 (stereo not shown) [Compound 2-1, methyl 2-[3-({2-chloro-4-fluoro-5-[3-methyl-2,6-dioxo-4-(trifluoromethyl)-1,2,3,6-tetrahydropyrimidine-1-yl]phenoxy}methyl)phenoxy]propionate] | completely controlled | completely controlled | completely controlled | completely controlled | 10 | 10 | 10 | 10 | 10 | 10 | 10 | 10 | 10 | 10 |
